# Assay results reported in patent publication US10517839B2, “Mast cell inhibition in diseases of the retina and vitreous” (Cornell University, priority 2008, dated 2019).
# “Also recorded” adds a separate entry of the source.
# Assays:
# [1] = system: STZ-induced hyperglycemic Long-Evans rats; experiment: Evan's Blue dye leakage across the blood-retinal barrier; assay type: in vivo, rat; details: Na cromolyn 4% topical, 2 drops twice a day, day 15 post STZ, n=4 rats
# Description: In order to verify this finding, additional experiments were designed to measure leakiness across the blood-retinal barrier of STZ-induced hyperglycemic Long-Evans rats and to determine whether mast cell stabilization reduces vascular permeability in the hyperglycemic state. Blood glucose levels were monitored weekly to verify the hyperglycemic state. The three groups of animals were as follows: untreated hyperglycemic, cromolyn-treated hyperglycemic, and normo-glycemic (vehicle injected). The hyperglycemic group of rats was treated with the mast cell stabilizer (Na cromolyn, 4%) by topical administration to the eyes (2 drops twice a day), as described above.
# Measurements of the Evan's Blue dye concentration across the blood-retinal barrier were performed on day 15 post±STZ-injection. […] 100 μl of the filtrate was then measured in a spectrophotometer at 620 nm, the dye's absorbance maximum. The dye's absorbance minimum, 740 nm, served as a reference wavelength. Dilutions (1:1000 in formamide) of the collected plasma were also measured spectrophotometrically at this time. Sample absorbance measurements were converted to concentrations using absorbance measurements from known concentrations of Evan's Blue in formamide. Dye leakage from blood to retina was calculated as: […]
# [2] = system: STZ-induced diabetic rat model (Long Evans strain); experiment: Fluorescein angiography of retinal vascular permeability; assay type: in vivo; details: for leakage/pooling of fluorescein dye out of retinal vessels: 2 drops b.i.d.; for retinal vascular leakiness (fluorescein) over time: STZ Long-Evans rats, 14 and 28 days, n=3, FIG. 14
# Description: To assess vascular leakage in these diabetic rats, fluorescein retinal angiography was performed weekly over a 2-month time course in the Long-Evans rats. In some experiments, rats were treated with the mast cell stabilizer, Na-cromolyn, topically administered to the eyes. The structure of Na-Cromolyn is shown below.
# Angiography was performed on an upright fluorescence microscope using a long working distance lens. At the 2-month end point, rats were sacrificed and the eyes were enucleated, dissected free of cornea and extra-orbital connective tissue, and fixed in 4% paraformaldehyde.
# The STZ-induced diabetic rat model (Long Evans strain) (40 mg/kg body wt; 28 days) was used for these studies. Fluorescein angiography was performed to assess the permeability of the retinal vasculature in these rats. The pigmented eyes of this strain facilitate angiography. Diabetic rats were treated with the mast cell stabilizer Na-cromolyn and the vascular permeability of these treated rats was compared to diabetic rats that were not treated with Na-cromolyn.
# Weekly angiograms were also performed on control rats, STZ-injected, and STZ-injected rats treated with the mast cell stabilizer, Na cromolyn […], topically administered to the eyes (2 drops b.i.d.).
# The STZ-induced diabetic rat model (Long Evans strain) (40 mg/kg body wt; 28 days) was used for fluorescein angiography experiments. The pigmented eyes of this strain facilitate angiography. To evaluate the role of mast cells, weekly angiograms were performed on control rats, STZ-injected, and STZ-injected rats treated with the mast cell stabilizer, Na cromolyn (4%), topically administered to the eyes (2 drops b.i.d.).
# [3] = system: VEGF; experiment: VEGF levels in retinas of STZ-injected diabetic rats; assay type: in vivo, rat; details: for effect on VEGF levels in retina (in words): STZ-induced diabetic rats, Na-Cromolyn 4% topical
# Description: The STZ-induced diabetic rat model (Long Evans strain) (40 mg/kg body wt; 28 days) was used for these studies. To evaluate the effect of a mast cell stabilizer on VEGF levels, STZ-injected rats were treated with the mast cell stabilizer, Na-Cromolyn (4%), topically administered to the eyes (2 drops b.i.d.). VEGF levels were measured in the retinas of STZ-injected diabetic rats treated with Na-Cromolyn and these levels were compared to VEGF levels in the retinas of control rats and in the retinas of STZ-injected diabetic rats that received no Na-Cromolyn. Control rats received no streptozotocin (STZ) and no Na-Cromolyn.
# [4] = system: STZ-induced diabetic rat; experiment: Retinal whole mounts stained with FITC-griffonia lectin (tortuosity of retinal microvasculature); assay type: in vivo; details: cromolyn-treated diabetic rat, retinal whole mount
# Description: To induce a model of type-I diabetes, Sprague Dawley and Long-Evans rats were injected with a single dose of streptozotocin (STZ) (60 mg/kg) and maintained for 2 months. Hyperglycemia was confirmed by monitoring blood from tail bleeds. To assess vascular leakage in these diabetic rats, fluorescein retinal angiography was performed weekly over a 2-month time course in the Long-Evans rats. In some experiments, rats were treated with the mast cell stabilizer, Na-cromolyn, topically administered to the eyes. […] This Example describes an analysis of the retinal vasculature from fixed eyes of control (A), diabetic (B), and cromolyn-treated diabetic (C) rats.
# [5] = system: renin; experiment: Renin activity (ANG I formed, RIA) of HMC-1 cells before and 48 hours after siRNA transfection; assay type: cell-based, human; details: siRNA 50 nM, 48 hours after transfection
# Description: Renin-specific siRNA duplexes were made based on the coding sequence of human renin between exons 2-8 (Dharmacon) (accession number M26900). The four siRNA duplexes were made against the following renin sequences:
# To assess the efficacy of this siRNA approach, the activity of renin protein was measured both before siRNA transfecting and at 48 hours after transfection of the HMC-1 cells.
# HMC-1 cells were seeded in 6-well plates. Cells were transfected either with: renin siRNA duplexes (50 nM), scrambled siRNA duplex (50 nM), or treated with the transfection reagent (control), and maintained for 48 hours. An aliquot of cells from each well was counted to estimate the cell number before (initial) and 48 hours after transfection (post). The ability of the siRNA duplexes to silence renin mRNA in the transfected HMC-1 cells was determined by comparing the amount of ANG I formed in the releasate pre- and post-transfection by radioimmunoassay (RIA). […] The amount of ANG I generated on each sample is expressed as pg ANG I formed/ml/hr/10^5 cells. The effect of the siRNA on the amount of renin protein produced by the cell was determined by comparing the initial and final amounts of ANG I formed (renin activity) by the releasates.
# [6] = system: HMC-1 cells; experiment: Chemotaxis of HMC-1 cells in Corning transwells; assay type: cell-based, human; details: transwell, p<0.05
# Description: Chemotaxis experiments were performed with cultured human mastocytoma cells. HMC-1 cells were plated in Corning transwells consisting of inner and outer wells. The number of mast cells migrating through the insert in response to exogenous histamine±thioperamide, an H3/H4 histamine receptor […], was counted.
# [7] = system: isolated perfused diabetic kidneys; experiment: Flow rate of isolated perfused diabetic kidneys after mast-cell degranulation with 48/80; details: diabetic rat kidney; for vasoconstriction response to 48/80 compared to untreated diabetic kidney (in words): BILA 2157 in perfusate
# Description: Mast-cell degranulation was induced with agent 48/80, which will release renin, as the inventors have previously shown, as well as numerous other mediators synthesized and stored by mast cells.
# Flow rate (ml/min) was measured under constant perfusion pressure, and is plotted against time (min).
# After establishing a constant flow rate, mast-cell degranulation was induced by injecting the 48/80 degranulating agent (300 μg/ml) into the renal artery (at arrow). […] However, the magnitude of this vasoconstriction response was markedly different between the two kidneys. […] Moreover, the return to baseline flow rate was much faster in the BILA2157-treated diabetic kidney (˜8 min) compared to the untreated diabetic kidney (˜40 min). The rate of the initial flow recovery was also greater in the BILA-treated diabetic kidney (0.5 mls/min/min) compared to the untreated diabetic kidney (0.3 mls/min/min). […] In situ, the time it takes to return to normal flow after an acute increase in vascular resistance can profoundly influence the extent of ischemic damage in the kidney.
compound,measurement,setting,value
"O=C([O-])c1cc(=O)c2c(OCC(O)COc3cccc4oc(C(=O)[O-])cc(=O)c34)cccc2o1.[Na+].[Na+] [Na-cromolyn, Na-Cromolyn]",Evan's Blue dye leakage across the blood-retinal barrier,[1],prevented dye leakage into the retinal space; also recorded: protects against the early phase of increased vascular permeability
same,Evan's Blue dye leakage across the blood-retinal barrier,[1]; listed as cromolyn Na,protective effect against increased vascular permeability
same,leakage/pooling of fluorescein dye out of retinal vessels,"[2]; Na cromolyn 2% topical, day 28, FIG. 15",prevented dye pooling
same,leakage/pooling of fluorescein dye out of retinal vessels,"[2]; Na cromolyn 4% topical, weekly angiograms",prevented dye pooling
same,retinal vascular leakiness (fluorescein) over time,[2],greatly diminished
same,retinal vascular leakiness (fluorescein) over time,[2]; listed as cromolyn,reduces the leakage of fluorescein from retinal vessels
same,effect on VEGF levels in retina (in words),[3],reduces vascular endothelial growth factor (VEGF) levels
same,effect on VEGF levels in retina (in words),[3]; listed as Cromolyn Na,decreases vascular endothelial growth factor (VEGF) levels
same,VEGF level in retina,"[3]; STZ-injected hyperglycemic rats, Na-Cromolyn 4% topical 2 drops b.i.d., 1 month, n=2",about 65 pg VEGF/ml/mg retina
same,tortuosity / abnormal vessel morphology of retinal microvasculature,[4],abnormal changes in the vessel morphology were not observed
"scrambled control siRNA: negative control, non-specific scrambled siRNA duplex, SEQ ID NO: 9 and 10 (chain 1 AUGUAUUGGCCUGUAUUAGUU; chain 2 CUAAUACAGGCCAAUACAUUU; listed as RNA, chemistry not given here)",change in renin activity / amount of ANG I formed after transfection (in words),[5],no significant decrease
S=C(NC1CCCCC1)N1CCC(c2cnc[nH]2)CC1 [thioperamide],migration with histamine alone compared to thioperamide alone or histamine in the presence of thioperamide,[6],significantly more migration
NCCc1c[nH]cn1 [histamine],number of mast cells migrating through the insert in response to exogenous histamine,[6]; vs control,significantly more migration
CC(C)C[C@H](O)[C@H](O)[C@H](CC1CCCCC1)NC(=O)[C@@H](CC(=O)N(CC(=O)N(C)CCc1ccccn1)CC1CCCCC1)Cc1csc(N)n1 [BILA2157],rate of the initial flow recovery,"[7]; 100 nM BILA 2157, after 48/80",0.5 mls/min/min
same,return to baseline flow rate,"[7]; 100 nM BILA 2157, after 48/80",~8 min
same,flow rate after 48/80 injection (from baseline 20 ml/min),"[7]; 100 nM BILA 2157 in perfusate, constant perfusion pressure, 48/80 300 μg/ml into renal artery",12 mL/min
same,effect on flow rate in the absence of a degranulating agent,[7]; 100 nM in perfusate,no effect on flow rate
same,vasoconstriction response to 48/80 compared to untreated diabetic kidney (in words),[7],much less vasoconstriction
same,vasoconstriction response to 48/80 compared to untreated diabetic kidney (in words),[7]; listed as BILA 2157,offsets the rate reducing effects
